From PubChem BioAssay (NCI)
Where “and” joins values, the source holds several entries; their conditions need not be identical. Identical values can stand only once.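 Protocol summary: plate cells (96-well), add compound at 5 concentrations, incubate 48 h, interpolate endpoints linearly. Here, GI50 denotes the concentration required for 50% inhibition of growth. TGI denotes the concentration required for complete inhibition of growth.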

What was measured:
Experiment in all cases: NCI anticancer screen, dose series, 48 h
[1] = system: OVCAR-3 ovarian
[2] = system: DMS 114 small cell lung
[3] = system: MOLT-4 leukemia
[4] = system: NCI-H226 lung
[5] = system: ACHN renal
[6] = system: HCT-15 colon
[7] = system: HT29 colon
[8] = system: MDA-MB-231 breast
[9] = system: LXFL 529 NSCLC
[10] = system: LOX IMVI melanoma
[11] = system: SK-MEL-5 melanoma
[12] = system: HCT-116 colon
[13] = system: NCI-H522 lung
[14] = system: CAKI-1 renal
[15] = system: SN12C renal
[16] = system: MDA-MB-435

For CN1C(=O)CC2(C)c3cc(O)ccc3N(C)C12 (configuration not stated), the GI50 [1] was 16.1 µM, the TGI [1] was 32 µM and 30.9 µM and the TGI [2] was over 100 µM. The TGI [3] was 44.7 µM and 40.1 µM, the GI50 [4] was 19.5 µM and the TGI [4] was 54.4 µM and 71.9 µM. The GI50 [5] was 25.6 µM, the TGI [5] was 75 µM and > 100 µM and the GI50 [6] was 14.3 µM. The TGI [6] was 25.9 µM and 41.9 µM, the GI50 [7] was 21.4 µM and the TGI [7] was 64.5 µM and 51 µM. For the same compound, the TGI [8] was 40.6 µM and 34.1 µM, the TGI [9] was over 59.2 µM and the GI50 [10] was 14.8 µM. For the same compound, the TGI [10] was 38.9 µM and 32.6 µM, the GI50 [11] was 54.1 µM and the TGI [11] was 75 µM and 50.5 µM. For the same compound, the GI50 [12] was 22.8 µM, the TGI [12] was 51.8 µM and 42.1 µM and the GI50 [13] was 15.6 µM. For the same compound, the TGI [13] was 33.2 µM and 60 µM, the GI50 [14] was 32.4 µM and the TGI [14] was 63.5 µM and > 100 µM. The TGI [15] was 29.6 µM and 23.3 µM, the GI50 [16] was 9.51 µM and the TGI [16] was 19.7 µM and 28.4 µM.
